# According to patent US20120028917A1, “Use Of N-(4-((3-(2-Amino-4-Pyrimidinyl)-2-Pyridinyl)Oxy)Phenyl)-4-(4-Methyl-2-Thienyl)-1-Phthalazinamine In The Treatment Of Antimitotic Agent Resistant Cancer” (Amgen Inc., priority 2009, published 2012):
# Tests used:
# Assay type in all cases: cell-based
# [1] = test system: 32 human tumor cell lines; assay: Antiproliferative effect across tumor cell line panel (summary); conditions: across solid and hematologic tumor cell lines (Tables 1 and 2)
# Method: Tumor cells were seeded in a Packard View 96-well plate in 100 μL of appropriate complete media at a density of 3000 or 5000 cells/well depending on the cell line growth kinetics (broadly defined as slow vs. fast). All dilutions were performed using Biomek FX workstation. The next day cells were treated with AMG 900 (11-point dose range 0.156 to 0.0003 μM) with a final DMSO concentration of 0.12% in media. After 24 hours, the media containing compound was removed and the cells were washed with complete media. The cells were then incubated in 100 μL of fresh complete media (without compound) for 48 hours. After 48 hours, the cells were fixed by adding 100 μL of fixation buffer to 100 μL of complete media. […] Quantification of individual cell nuclear area and intensity was performed based on Hoechst 33342 DNA dye fluorescence. A threshold on the nuclear area based on the DMSO-treated control well was set to quantify the number of normal size nuclei from nuclear debris and polyploidy cells. […] The dose-concentration curves and EC50 values were calculated using a 4-parameter equation.
# Tumor cells were seeded in a 300 μL deep 96-well plate in 150 μL of appropriate complete media at a density of 100,000 cells/well. […] Data was acquired and analyzed by flow cytometer (LSRII). […] The concentration-response curves and EC50 values were calculated using a 4-parameter equation.
# MDA-MB-231 = assay: Cell cycle DNA content assay (flow cytometry); conditions: Homo sapiens, 24 h; MDA-MB-231, Breast, Parent line; read-out: EC50 @ 24 hours, ≧4N DNA content
# Method: (§1) MDA-MB-231(F11)-luc parent and taxol-resistant cells were seeded at a density of 250,000 cells/well in a 12-well plate in 1 mL of in the appropriate media, in duplicates. The next day cells were treated with AMG 900 or taxol over a 10-point concentration range with a final DMSO concentration of 0.1% in taxol-free media. After 24 hours, cells were harvested with 1× trypsin-EDTA and transferred to PCR tubes. Cells were centrifuged at 2000 rpm for 4 minutes and the supernatant was aspirated. Cells were fixed in 200 μL of ice cold 90% methanol and stored at −20° C. for at least 24 hours. Fixed cells were centrifuged at 2000 rpm for 4 minutes to remove 90% methanol. Cells were washed with wash buffer and stained with 200 μL of propidium iodide (PI) for 30 minutes at 4° C. in the dark. An additional 400 μL of PI was added before data acquisition. Data was acquired and analyzed by flow cytometry (LSRII). A threshold gate was applied according to +4N (same as ≧4N) DNA content based on DMSO control and low/high drug-treated groups. The data was represented as percentage of control for +4N DNA content positive populations. The +4N DNA content cellular EC50 values were assigned using 4-parameter equation. […] Flow cytometric-based cell cycle analysis was performed to measure the percentage of ≧4N DNA content or SubG1 DNA content positive cells. The dose-response curves for AMG 900 represent the drug concentration plotted against the percentage of ≧4N DNA content positive cells. The dose-response curves for taxol represent the drug concentration plotted against the percentage of SubG1 DNA content positive cells. The EC50 values were calculated by 4-parameter fit model.
# MDA-MB-231-Taxol-r = assay: Cell cycle DNA content assay (flow cytometry); conditions: Homo sapiens, 24 h, Breast, Paclitaxel-selected, read-out: EC50 @ 24 hours, ≧4N DNA content
# Method: as §1
structure (smiles),measurement,setting,value
"Cc1csc(-c2nnc(Nc3ccc(Oc4ncccc4-c4ccnc(N)n4)cc3)c3ccccc23)c1 [AMG 900, N-(4-((3-(2-amino-4-pyrimidinyl)-2-pyridinyl)oxy)phenyl)-4-(4-methyl-2-thienyl)-1-phthalazinamine]",EC50,[1],1 to 5 nM
same,EC50,MDA-MB-231,1 nM
same,EC50,MDA-MB-231-Taxol-r,1 nM
